{
  "source": "patent US9573972B2",
  "about": "“Nurotoxic sterol glycosides” (priority 2008, dated 2017)",
  "key": {"male CD-1 mice [1]": {"test_system": "male CD-1 mice", "experiment": "Leg extension reflex test, SG-fed mice", "assay_type": "in vivo, mouse", "excerpt": "(§1) Five-month old male CD-1 mice (30.1-35.7 g, 7.5 cm-8.8 cm) were purchased from Charles River (Wilmington, Mass.). Adult mice were chosen to mimic the mean age of onset of ALS-PDC (Kurland, L. T. (1988a) Trends Neurosci. 11, 51-4; Kurland, L. T., et al. (1994) Amyotrophic lateral sclerosis-parkinsonism-dementia complex on Guam: epidemiologic and etiological perspectives. 109-131). Thirty mice for the SG study were randomly divided into 2 groups (14 control and 16 experimental animals). All animals were housed singly in a virus-free barrier facility in a room maintained at 22° C. under a 12 hour light/dark cycle. The mice were provided ad libitum access to food and water.\nThe synthetic SG was mixed with finely ground Purina Chow mouse pellets (Mouse Diet™, Purina) to create the experimental pellets with a SG content of 1000 μg per pellet. Dry materials were blended with a sterile silicon spatula. For every 5 g of standard feed, 2.5 mL of doubly-distilled water (dd)H2O was added and the dough was kneaded and round up into pellets. […] SG feeding was conducted daily for 15 weeks and mice were behaviorally monitored until sacrifice at 35 weeks (time point 1) or 52 weeks (time point 2).\nLeg extension reflex test: The leg extension reflex test was used as a measure of motor neuron dysfunction (Barneoud et al., 1999). […] The leg extension reflex was measured three times per week in each animal. […]"}, "male CD-1 mice [2]": {"test_system": "male CD-1 mice", "experiment": "Gait analysis (Digigait), SG-fed mice", "assay_type": "in vivo, mouse", "conditions": "SG-fed vs control", "excerpt": "as §1\nThe synthetic SG was mixed with finely ground Purina Chow mouse pellets (Mouse Diet™, Purina) to create the experimental pellets with a SG content of 1000 μg per pellet. Dry materials were blended with a sterile silicon spatula. For every 5 g of standard feed, 2.5 mL of doubly-distilled water (dd)H2O was added and the dough was kneaded and round up into pellets. A single sterol glucoside containing pellet was placed in the feeding tray each morning before the addition of regular mouse chow (ad libitum). All experimental pellets were entirely consumed by the mice each day. Control mice were fed standard mouse chow pellets of identical weight with no additives. SG feeding was conducted daily for 15 weeks and mice were behaviorally monitored until sacrifice at 35 weeks (time point 1) or 52 weeks (time point 2).\nGait analysis: In order to examine spatial and temporal indices of front and hind limb stepping patterns during forward locomotion, mice were required to run on a colorless (PVC and polycarbonate), straight, level, walled motorized belt (Digigait™, treadmill motor: DC, HP; torque 451b-in, Mouse Specifics, Inc., Boston, Mass., USA) set at 30 rpm with a no-flicker light source (90-250 VAC; 25 kHZ, Mouse Specifics, Inc., Boston, Mass., USA) and camera mounted ventrally (relative to the animal) to facilitate continuous ventral plane videography (up to 150 frames per second) of activity. Gait indices were analyzed with the complementary digital imaging software (Digigait™, Mouse Specifics, Inc., Boston, Mass., USA) as per manufacturer's instructions. Briefly, the software converts “paw prints” into a digital signal and generates a temporal record of paw placement and breaks down the digital file into three main parameters: stride duration, swing duration, and stance duration. The stance duration is the period during which the paw of a limb is in contact with the belt surface. The software further subdivides the stance duration into two components: braking duration (the increase in paw contact area over a discrete time interval) and propulsion duration (the decrease in paw contact area over a discrete time interval). The swing duration is the period of time that a paw is not in contact with the belt surface. In addition to these factors, over a dozen additional characteristics, including stance factor, step-sequence pattern, propulsion, and cadence are generated to provide a spreadsheet format report of twenty-five gait indices."}},
  "note": "“Also recorded” adds a separate entry of the source.",
  "data": [
    {"smiles": "CC[C@H](/C=C/[C@@H](C)[C@H]1CC[C@H]2[C@@H]3CC=C4C[C@@H](O[C@@H]5O[C@H](CO)[C@@H](O)[C@H](O)[C@H]5O)CC[C@]4(C)[C@H]3CC[C@]12C)C(C)C", "note": "[SG, Stigmasterol β-D-Glucopyranoside]", "values": [
      {"measurement": "Leg extension", "setting": "male CD-1 mice [1]; SG-fed vs control, Time-point 2 (52 wk)", "result": "Leg extension* (*p < 0.05)"},
      {"measurement": "Leg extension reflex test performance (score 0-4)", "setting": "male CD-1 mice [1]; SG-fed, duration of study", "result": "decreased; also recorded: steady decline in performance"},
      {"measurement": "Forelimb braking", "setting": "male CD-1 mice [2]; Time-point 1 (35 wk)", "result": "Forelimb braking (ns)"},
      {"measurement": "Forelimb propulsion", "setting": "male CD-1 mice [2]; Time-point 1 (35 wk)", "result": "Forelimb propulsion (ns)"},
      {"measurement": "Forelimb stance width", "setting": "male CD-1 mice [2]; Time-point 1 (35 wk)", "result": "Forelimb stance width (ns)"},
      {"measurement": "Forelimb stride length", "setting": "male CD-1 mice [2]; Time-point 1 (35 wk)", "result": "Forelimb stride length (ns)"},
      {"measurement": "Hind limb braking", "setting": "male CD-1 mice [2]; Time-point 1 (35 wk)", "result": "Hind limb braking (ns)"},
      {"measurement": "Hind limb propulsion", "setting": "male CD-1 mice [2]; Time-point 1 (35 wk)", "result": "Hind limb propulsion (ns)"},
      {"measurement": "Hind limb stance width", "setting": "male CD-1 mice [2]; Time-point 1 (35 wk)", "result": "Hind limb stance width (ns)"},
      {"measurement": "Hind limb stride frequency", "setting": "male CD-1 mice [2]; Time-point 1 (35 wk)", "result": "Hind limb stride frequency (ns)"},
      {"measurement": "Hind limb stride length", "setting": "male CD-1 mice [2]; Time-point 1 (35 wk)", "result": "Hind limb stride length (ns)"},
      {"measurement": "Forelimb braking", "setting": "male CD-1 mice [2]; Time-point 2 (52 wk)", "result": "Forelimb braking* (*p < 0.05)"},
      {"measurement": "Forelimb propulsion", "setting": "male CD-1 mice [2]; Time-point 2 (52 wk)", "result": "Forelimb propulsion* (*p < 0.05)"},
      {"measurement": "Hind limb braking", "setting": "male CD-1 mice [2]; Time-point 2 (52 wk)", "result": "Hind limb braking* (*p < 0.05)"},
      {"measurement": "Hind limb propulsion", "setting": "male CD-1 mice [2]; Time-point 2 (52 wk)", "result": "Hind limb propulsion* (*p < 0.05)"},
      {"measurement": "Hind limb stride frequency", "setting": "male CD-1 mice [2]; Time-point 2 (52 wk)", "result": "Hind limb stride frequency* (*p < 0.05)"}
    ]}
  ]
}
